The text below walks through data of patent US20250388542A1, “ANALOGUES OF PENTAMIDINE AND USES THEREFOR” (Auransa Inc., priority 2018, published 2025).

For one data set, the system named is Hep3B-luc. Put plainly: CellTiter-Glo cell viability, liver cell lines, 8 days. The class given is cell-based. Conditions: Hep 3B-Luc, 192 h, full growth media. As for the experimental part: The objective of this study is to investigate the effect of Compound 1 on cell viability of various types of liver cancer. Ten (10) different liver cancer cell lines were employed in the study. Each liver cell line shown in Table 4 was treated with Compound 1, pentamidine, as reference control, a standard of care (cisplatin) and culture medium contains 0.2% [v/v] DMSO vehicle control and IC50 values were obtained as described above. The raw data values from the CellTiter-Glo™ cell viability assay expressed in relative luminescence units were normalized to the vehicle for each individual plate, and any reduction in luminescence indicated a decrease in viability (%). The data was analyzed in GraphPad PRISM using a non-linear sigmoidal plot with variable slope (asymmetric four-point linear regression), and an IC50 value for each compound was generated. The experiment tested pentamidine, compound 1, and standard-of-care control Cisplatin in full growth media for 8 days. Cells were initially treated with the test compounds on Day 0, and the cells were then replenished with fresh compound dilutions on Day 3. Pentamidine, Compound 1, and cisplatin were tested at 9 concentration points; 100, 33.33, 11.11, 3.70, 1.23, 0.41, 0.14, 0.05, and 0.02 μM (final DMSO concentration=0.5%). In particular, the IC50 values of pentamidine and Compound 1 were 0.8 and 0.6 μM in Hep3B-luc, respectively.
The experiment tested pentamidine, Compound 1, and standard of care control, cisplatin, in full growth media for 8 days. Hep-3b cells were initially treated with the test compounds on Day 0, and the cells were then replenished with fresh compound dilutions on Day 3. […] The raw data values from the CellTiter-Glo™ cell viability assay expressed in relative luminescence units were normalized to the vehicle for each individual plate, and any reduction in luminescence indicated a decrease in viability (%). The data was analyzed in GraphPad PRISM using a non-linear sigmoidal plot with variable slope (asymmetric four-point linear regression), and an IC50 value for each compound was generated. […]
Background: ATP-based viability assays read luminescence as a measure of living cells.

Data set [1] can be described thus: Pharmacokinetics in liver and tissues after oral administration. Format: in vivo, mice. As for the experimental part: Compound 1 (20 mg per kg), Compound 5 (10 mg per kg), and pentamidine (20 mg per kg) were tested for their PK. Tissue samples were collected as described above in Example 23. Briefly, blood samples (approximately […]) were collected under light isoflurane anesthesia from retro orbital plexus of mice at 0.5, 1, 3, 8, 48 and 72 hr. Plasma samples were separated by centrifugation at 2,000×g for 6 minutes and stored below −70±10° C. until bioanalysis. Immediately after collection of blood, animals were euthanized using excess CO2 asphyxiation and samples were collected from set of five mice at each time point. Collected tissue samples were immediately dipped and rinsed three times in ice cold PBS (for 5-10 seconds/rinse using ˜5-10 mL fresh PBS in disposable petri dish for each rinse) and dried on blotting paper. Tissue samples were homogenized using ice-cold phosphate buffer saline (pH7.4) and homogenates were stored below −70±10° C. until analysis. Total homogenate volume was three times the tissue weight except for liver samples, total homogenate volume was ten times the liver weight. Bioanalysis process was determined by fit-for-purpose LC-MS/MS method.
Calibration standards were prepared by spiking the test compound into blank plasma. 10 μL of working calibration standard was spiked into 190 μL of blank Mice Plasma or tissue homogenate to generate linearly spiked calibration standards. Calibrator concentrations were 5,000, 2,000, 1,000, 200, 100, 20, 10, 2 and 1 ng/mL. Calibration standard samples were processed along with the test samples. Twenty-five μL aliquots of plasma or tissue homogenate test samples were treated with 100 μL of acetonitrile containing internal standard (500 ng/mL Glipizide). Samples were vortexed for 5 minutes. Samples were centrifuged for 10 minutes at a speed of 4000 rpm at 4° C. Following centrifugation, 100 μL of clear supernatant was transferred in 96-well plates of and analyzed using LC-MS/MS. Chromatographic separation was achieved using a Kintex Polar column (C18, 100×4.6 mm, 5μ) and column oven temperature 45° C. For compound 1 diHCl the mobile phase A was water with 0.1% formic acid in Acetonitrile; mobile phase B was 10 mM ammonium formate. However, the mobile phase for pentamidine and Compound 5 mobile phase A was water with 0.1% formic acid and mobile phase B acetonitrile with 0.1% formic acid.
The gradient program for Compound 1 was as follows: 5% B (1-2.40 min), 90% B (2.60-3.00 min), and the initial for B was 90%. The retention rate was 1.47 per minute and the internal standard Glipizide was 1 per 9 minutes. The column was maintained at 45° C. For pentamidine and Compound 5, analysis was performed using 233 MassSpec by AB Sciex API5000 with Turbo Ion Spray interface operating in a positive ionization mode. Quantification was performed using multiple reaction monitoring (MRM) method with the transitions of (m/z) 328 à (m/z) 311 for Compound 5 and (m/z) 548 à (m/z) 366 for Edoxaban (internal standard). While, for pentamidine (m/z) 341 à (m/z) 324 and (m/z) 548 à (m/z) 366 for Verapmil (internal standard).
The gradient program for Compound 5 was as follows: 10% B (0-0.2 min), 95% B (1.5-2 min), the initial for B was 10% and it stopped at 2.6 mins. The flow rate was 0.5 mL/min. The gradient program for pentamidine was as follows: 10% B (0-0.2 min), 95% B (1.4-2 min), the initial for B was 10% and it stopped at 2.5 mins. The flow rate was 0.5 mL/min.

What is called IC50 is the concentration that inhibits the measured activity by half. A higher IC50 goes with lower potency.

For the compound `N=C(N)c1ccc(OCCCCCOc2ccc(C(=N)N)nc2)cc1` [Compound 1, 5-(5-(4-carbamimidoylphenoxy)pentyloxy)picolinimidamide], the IC50 in the data set on Hep3B-luc stood at 600 nM. Besides, the “Cmax normalized to dose, liver, relative to pentamidine” value in data set [1] (20 mpk p.o. both) was around 7 folds. For the same compound, the “exposure to the liver vs pentamidine (20 mpk)” value in data set [1] (Compound 1 20 mpk, Compound 5 10 mpk, p.o.) was “greater exposure to the liver than pentamidine”. Moreover, the half-life vs pentamidine entry in data set [1] (liver, p.o.) is “higher half-life than pentamidine”. Besides, the tissue exposure entry in data set [1] (liver, small intestine, ileum, p.o.) is “increased exposure in the liver as well as small intestine and ileum”. For the same compound, the “exposure to the plasma” value in data set [1] (plasma vs other tissues, p.o.) is “low in comparison to other tissues”.
